Usually Kd stands for the free concentration of one partner at which half of the binding sites on the other are occupied at equilibrium, for simple one-to-one binding.

Read-outs that look alike come from different tables or passages of the source.

Here are results for two compounds from patent publication US20140031388A1, “AKT INACTIVATION BY TOCOPHERYL DERIVATIVES” (priority 2012, published 2014).

The test system of one assay is LNCaP cells. The experiment in a line: MTT viability assay, LNCaP. Particulars: Homo sapiens, 1% FBS-containing or serum-free RPMI 1640 medium for 24 h. In kind it is cell-based. The method, then:
(§1) The prostate cancer cell lines, LNCaP and PC-3, were purchased from American Type Culture Collection (Manassas, Va.) and maintained in RPMI 1640 medium containing 10% heat-inactivated fetal bovine serum at 37° C. in a humidified incubator containing 5% CO2. The LNCaP-abl cells were a generous gift from Dr. Qianben Wang (The Ohio State University). Normal prostate epithelial cells were purchased from Lonza (Walkersville, Md.) and were cultured in the vendor-recommended defined prostate epithelial cell growth medium. For experiments, LNCaP cells were plated on poly-D-lysine-coated culture flasks at a density of 12,000 cells per cm^2 surface area for 24 hours, followed by treatment with test agents in serum-free RPMI 1640 medium. The α- and γ-tocopherols were purchased from Sigma-Aldrich (St. Louis, Mo.). The tocopherol derivatives, α- and γ-VE5, were synthesized by the inventors.
(§2) LNCaP cells were plated into poly-D-lysine-coated 96-well plates and PC-3 and LNCaP-abl cells into uncoated plates at the density of 5,000 cells per well in the presence of 10% FBS. Normal prostate epithelial cells were plated into uncoated plates at a density of 8,000 cells per well. […] After 24 hours of treatment, cells were incubated with MTT [3-(4,5-dimethylthiazol-2-yl)-2,5-diphenyl-2H-tetrazolium bromide] (TCI America; 0.5 mg/ml, final concentration) for an additional 2 hours. The medium was then removed from each well and replaced with DMSO to dissolve the reduced MTT dye for subsequent colorimetric measurement of absorbance at 595 nm. Cell viabilities are calculated as percentages of that in the corresponding vehicle-treated control group.
(In general: Tetrazolium dyes change colour on reduction, which living cells bring about.)

The test system of the next assay is PC-3 cells. The experiment in a line: MTT viability assay, PC-3. The settings on record: Homo sapiens. In kind it is cell-based. The method, then:
as §1, §2

The subject of a further assay is LNCaP and PC-3 cells. The experiment in a line: MTT viability assay, one value stated for both prostate cancer lines. The settings on record: for IC50: Homo sapiens, MTT, serum-free medium, one value for LNCaP and PC-3, read-out: IC50, antiproliferative effect / viability; for potency relative to parent tocopherol: Ser-473-Akt dephosphorylation and viability of prostate cancer cells. The class given is cell-based. On the procedure:
as §1
(§3) LNCaP cells were plated into poly-D-lysine-coated 96-well plates and PC-3 and LNCaP-abl cells into uncoated plates at the density of 5,000 cells per well in the presence of 10% FBS. Normal prostate epithelial cells were plated into uncoated plates at a density of 8,000 cells per well. Exposure to test agents in serum-free medium was initiated 24 hours later. After 24 hours of treatment, cells were incubated with MTT [3-(4,5-dimethylthiazol-2-yl)-2,5-diphenyl-2H-tetrazolium bromide] (TCI America; 0.5 mg/ml, final concentration) for an additional 2 hours. The medium was then removed from each well and replaced with DMSO to dissolve the reduced MTT dye for subsequent colorimetric measurement of absorbance at 595 nm. Cell viabilities are calculated as percentages of that in the corresponding vehicle-treated control group.

In assay [1] the test system is Normal prostate epithelial cells. Put plainly: Viability / apoptosis in normal prostate epithelial cells. The class given is cell-based. Particulars: Epithelial cell. The method, then:
as §1, §3

A further assay deals with LNCaP-abl cells. The experiment in a line: MTT viability assay, LNCaP-abl. The settings on record: Homo sapiens; LNCaP-abl cells (comparable to parental LNCaP); read-out: IC50, antiproliferative effect. The class given is cell-based. On the procedure: as §1
LNCaP cells were plated into poly-D-lysine-coated 96-well plates and PC-3 and LNCaP-abl cells into uncoated plates at the density of 5,000 cells per well in the presence of 10% FBS. […] The medium was then removed from each well and replaced with DMSO to dissolve the reduced MTT dye for subsequent colorimetric measurement of absorbance at 595 nm. Cell viabilities are calculated as percentages of that in the corresponding vehicle-treated control group.

Assay [2] deals with T1, PH domain of PHLPP1 (GST-PH domain fusion protein) (Homo sapiens, UniProt O60346).
T1 construct: made in house
T1 sequence (O60346 536-636 limits assumed): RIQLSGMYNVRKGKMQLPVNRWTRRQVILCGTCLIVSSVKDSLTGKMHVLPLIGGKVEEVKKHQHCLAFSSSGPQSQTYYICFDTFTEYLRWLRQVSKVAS
Put plainly: Surface plasmon resonance binding, PHLPP1 PH domain. Particulars: SPR; means (n = 3) ± SD; read-out: Kd, PHLPP1 PH domain. From the text: (§4) The cDNA fragments corresponding to the putative PH domain sequences of PHLPP1 (+115 to +372), PDK1 (+1225 to +1671), Akt1 (+1 to +447) and ILK (+538 to +646) were PCR-amplified using the plasmids pcDNA-HA-PHLPP1, pWZL-Neo-Myr-FLAG-PDPK1, pcDNA-HA-PKB-T308D-S473D, and pCMV-SPORT-ILK (Addgene) as templates. The PCR products were then cloned into EcoRI/XhoI sites of the pGEX-4T1 expression vector (GE Healthcare Life Sciences) to generate four constructs (pGEX-4T1-PHLPP1, pGEX-4T1-PDPK1, pGEX-4T1-AKT1, pGEX-4T1-ILK) for the expression of GST-PH domain fusion proteins. The mutated Akt1 Y38G PH domain was generated from pGEX-4T1-AKT1 by site-directed mutagenesis using the QuikChange II XL Site-Directed Mutagenesis Kit (Agilent Technologies). The expression and purification of GST-PH domain fusion proteins were performed essentially as described previously. Thomas et al., Curr Biol 12, 1256 (2002). The purified PH domains were analyzed by SDS-PAGE using an overloaded gel with purities were estimated to be >95% using ImageJ software.
(§5) Binding experiments were performed using a Biacore T100 system (GE Healthcare, Piscataway, N.J.). The GST-PH domain fusion proteins were immobilized on a CM5 S Sensorchip using Biacore's Amine Coupling Kit to a level of 17,000 response units. VE5 compounds and di-octanoyl PIP3 at concentrations ranging from 0.1 to 100 μM and 1 to 20 μm, respectively, were injected at a high flow rate (30 μL/min) over the biosensor surface for binding analyses. DMSO concentrations in all samples and running buffer were 1% (v/v) or less. Data were analyzed using Biacore T100 Evaluation Software.
Background: SPR reads the build-up and loss of mass on a sensor chip optically.

Another assay concerns the target T2, Akt1 Y38G PH domain (Homo sapiens, UniProt P31749, Y38G).
T2 construct: made in house
Put plainly: Surface plasmon resonance binding, Akt-Y38G PH domain mutant. Particulars: SPR, P < 0.05 vs. Akt.
Excerpt: as §4
Binding experiments were performed using a Biacore T100 system (GE Healthcare, Piscataway, N.J.). The GST-PH domain fusion proteins were immobilized on a CM5 S Sensorchip using Biacore's Amine Coupling Kit to a level of 17,000 response units. […] Data were analyzed using Biacore T100 Evaluation Software.

The target of assay [3] is VL2-deleted mutant of the PH domain of Akt (Homo sapiens, UniProt P31749). Put plainly: Surface plasmon resonance binding, VL2-deleted Akt PH domain. The settings on record: SPR. The method, then: as §5
In assay [4] the test system is PDK-1 membrane localization. Put plainly: Immunofluorescence, membrane localization of PDK-1 at higher concentrations. Particulars: 6 hours of exposure. The class given is cell-based. On the procedure:
Cells were stained for endogenous PH domain-containing proteins (Akt, PHLPP, PDK-1, ILK, BTK) by incubation with specific antibodies (1:100), followed by incubation with the Alexa Fluor 555-conjugated goat anti-rabbit or Alexa Fluor 488-conjugated goat anti-mouse IgG (1:200) at room temperature for 2 hours. Both primary and secondary antibodies were diluted in incubation buffer containing 0.1% Triton X-100 and 0.2% bovine serum albumin in PBS. The cells were washed in PBS after each step and mounted using […] mounting medium supplemented with DAPI (Vector Laboratories Inc., Burlingame, Calif.). The slides were allowed to set for at least 4 hours before confocal images were acquired using a Zeiss LSM 510 inverted confocal laser scanning microscope operated with Zeiss LSM 510 software. Image analysis was performed using ImageJ (NIH) software.

T2 sequence (P31749 5-108 Y38G limits assumed): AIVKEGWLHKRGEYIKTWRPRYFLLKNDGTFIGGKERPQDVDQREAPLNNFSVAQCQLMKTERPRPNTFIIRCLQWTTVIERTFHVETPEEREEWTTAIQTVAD
VL2-deleted mutant of the PH domain of Akt, sequence (P31749 whole entry, looked up, stated change not applied, the tested form may be a part): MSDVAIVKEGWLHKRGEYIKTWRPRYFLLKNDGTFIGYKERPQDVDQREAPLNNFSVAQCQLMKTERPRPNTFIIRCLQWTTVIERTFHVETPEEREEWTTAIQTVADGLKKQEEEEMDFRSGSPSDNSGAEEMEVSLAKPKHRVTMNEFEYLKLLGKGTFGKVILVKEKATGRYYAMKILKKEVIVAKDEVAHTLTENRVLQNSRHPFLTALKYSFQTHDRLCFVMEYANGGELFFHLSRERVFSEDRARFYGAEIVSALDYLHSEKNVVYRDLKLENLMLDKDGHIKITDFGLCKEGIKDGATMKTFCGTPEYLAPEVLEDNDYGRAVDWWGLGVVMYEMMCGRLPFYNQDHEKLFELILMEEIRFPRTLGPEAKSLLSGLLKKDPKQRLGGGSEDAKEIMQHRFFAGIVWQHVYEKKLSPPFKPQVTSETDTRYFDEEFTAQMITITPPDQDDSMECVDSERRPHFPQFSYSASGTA

Regarding `Cc1c(C)c2c(c(C)c1O)CC[C@@](C)(CCCC(C)C)O2` [α-VE5, (R)-2,5,7,8-tetramethyl-2-(4-methylpentyl)-chroman-6-ol], the IC50 in the assay on LNCaP cells was 20 µM; in the assay on PC-3 cells (PC-3, 1% FBS-containing or serum-free RPMI 1640 medium for 24 h, read-out: IC50 (μM) PC-3), 15 µM; in the assay with LNCaP and PC-3 cells it was 15 to 20 µM; in [1] it was around 50 µM; in the assay on LNCaP-abl cells it was 10 µM. In addition, the “potency relative to parent tocopherol” value with LNCaP and PC-3 cells worked out at 50 fold; with LNCaP and PC-3 cells (listed as a-VE5) it was 10 fold. Besides, the Kd amounted to 3.1 ± 0.3 µM in [2] and 0.48 ± 0.13 µM on Akt1 Y38G PH domain.

As to `Cc1c(O)cc2c(c1C)O[C@](C)(CCCC(C)C)CC2` [γ-VE5, (R)-2,7,8-trimethyl-2-(4-methylpentyl)-chroman-6-ol], the IC50 with LNCaP cells (24 h) is 12 µM; with PC-3 cells (PC-3, 24 h, 1% FBS-containing or serum-free RPMI 1640 medium for 24 h, read-out: IC50 (μM) PC-3) it was 8 µM; in the assay with PC-3 cells (PC-3, Table 3, antitumor activities against PC-3 cells, read-out: IC50) it was 8.5 µM; in the assay on LNCaP and PC-3 cells, 7 to 10 µM; in assay [1], around 40 µM; in the assay on LNCaP-abl cells it was 7 µM. For the same compound, the Kd amounted to 0.7 ± 0.1 µM in assay [2], 0.49 ± 0.02 µM at Akt1 Y38G PH domain and 30 ± 4 µM in [3]. The “membrane-associated PDK-1, share of total immunofluorescence signal” value in assay [4] (25 μM) is on record as “approximately 50%”; in [4] (35 μM) it was “greater than 90%”.
